This experiment concerns the target T1, Solute carrier family 2, facilitated glucose transporter member 1 (Homo sapiens, UniProt P11166).
T1 sequence (P11166 whole entry): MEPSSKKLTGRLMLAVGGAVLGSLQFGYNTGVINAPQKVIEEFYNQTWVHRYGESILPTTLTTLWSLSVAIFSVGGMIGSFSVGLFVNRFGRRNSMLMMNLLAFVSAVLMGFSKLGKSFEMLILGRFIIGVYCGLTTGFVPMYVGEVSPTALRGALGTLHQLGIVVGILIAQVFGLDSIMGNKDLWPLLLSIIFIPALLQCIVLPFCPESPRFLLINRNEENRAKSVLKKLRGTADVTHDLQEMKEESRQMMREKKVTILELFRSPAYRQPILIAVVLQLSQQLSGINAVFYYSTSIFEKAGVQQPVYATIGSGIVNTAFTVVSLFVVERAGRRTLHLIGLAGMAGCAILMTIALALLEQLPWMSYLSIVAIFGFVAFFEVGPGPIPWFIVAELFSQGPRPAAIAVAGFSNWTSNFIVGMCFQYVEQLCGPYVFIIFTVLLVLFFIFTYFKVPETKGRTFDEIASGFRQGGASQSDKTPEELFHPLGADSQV
The experiment is described as follows: Inhibition of the Glucose Transporter (GLUT1, SLC2A1) as assessed by a FRET based flow cytometry assay using a genetically-encoded biosensor for measuring free glucose (FLII12Pglu-700uDelta6) in HEK293 JumpIN TRex SLC2A1 WT-OE cells (PubChem AID: 1794830). The experiment is classed as functional, cell-based.

pEC50, pIC50: −log10 of the molar value.

For `O=C(Oc1cccc(F)c1OC(=O)c1cccc(O)c1)c1cccc(O)c1`, the pIC50 was below 5.00.
Regarding `OC[C@H]1OC(O)[C@H](O)[C@@H](O)[C@@H]1O` (some centres not stated) [DEXTROSE], the pEC50 is 3.28.

(Values after ChEMBL document CHEMBL5209577, “Flow cytometry transport assay for SLC2A1 using HEK293 JumpIN TRex SLC2A1 WT-OE cells” (2022).)
